# Patent US20050096254A1, “Peptide deformylase activated prodrugs” (priority 2002, published 2005)
# pIC50: −log10 of the molar value.
# How the values were obtained:
# Format in all cases: cell-based
# P. aeruginosa = assay: MIC susceptibility testing (modified NCCLS)
# Experimental: The NCCLS (National Committee for Clinical Laboratory Standards), method to determine MIC's of antimicrobial compounds is modified for high-throughput screening. All stocks of tested compounds are prepared in either water or in DMSO depending on solubility. At the highest concentration, DMSO content should not exceed 0.5%. Briefly, twenty 2-fold serial dilutions of test compounds from the highest concentration is made in a 384-well microtiter plate. […] Bacterial growth is determined by the increase of optical density at 600 nm using a microplate reader (Tecan SpectraFluor Plus).
# S. aureus = assay: MIC susceptibility testing (modified NCCLS)
# Experimental: (§1) The NCCLS (National Committee for Clinical Laboratory Standards), method to determine MIC's of antimicrobial compounds is modified for high-throughput screening. All stocks of tested compounds are prepared in either water or in DMSO depending on solubility. At the highest concentration, DMSO content should not exceed 0.5%. Briefly, twenty 2-fold serial dilutions of test compounds from the highest concentration is made in a 384-well microtiter plate. Each well is inoculated with testing bacteria in broth to a final concentration of approximately 1-1.5×10^6 cells/ml. Bacterial growth is determined by the increase of optical density at 600 nm using a microplate reader (Tecan SpectraFluor Plus).
# S. epidermidis = assay: MIC susceptibility testing (modified NCCLS)
# Experimental: as §1
# E. coli = assay: MIC susceptibility testing (modified NCCLS); settings: Table 4, E. coli
# Experimental: as §1
# E. cloacae = assay: MIC susceptibility testing (modified NCCLS)
# Experimental: as §1
# E. faecalis = assay: MIC susceptibility testing (modified NCCLS)
# Experimental: as §1
# H. influenzae = assay: MIC susceptibility testing (modified NCCLS)
# Experimental: as §1
# E. aerogenes = assay: MIC susceptibility testing (modified NCCLS)
# Experimental: as §1
# K. pneumoniae = assay: MIC susceptibility testing (modified NCCLS)
# Experimental: as §1
# M. catarrhalis = assay: MIC susceptibility testing (modified NCCLS)
# Experimental: as §1
# Mammalian cells = assay: Toxicity to mammalian cells; settings: after 16 hours of exposure
# Experimental: Mammalian cells were treated with Compound #2 as described above.
smiles,measurement,setting,value
CSCC[C@H](NC=O)C(=O)N[C@@H](CC(C)C)C(=O)Oc1cc(Cl)ccc1Oc1ccc(Cl)cc1Cl [Compound #2],MIC,"P. aeruginosa; Table 4, P. aeruginosa ATCC 21726, Exp. #1",>64 µg/mL
same,MIC,"P. aeruginosa; Table 4, P. aeruginosa ATCC 21726, Exp. #2",≧64 μg/ml
same,MIC,"P. aeruginosa; Table 4, P. aeruginosa ATCC 29872, Exp. #1",>64 µg/mL
same,MIC,"P. aeruginosa; Table 4, P. aeruginosa ATCC 29872, Exp. #2",≧64 μg/ml
same,MIC,"S. aureus; Table 3, S. aureus ATCC 11632, Exp. #1",≦0.125 μg/ml
same,MIC,"S. aureus; Table 3, S. aureus ATCC 11632, Exp. #2",≦0.125 μg/ml
same,MIC,"S. aureus; Table 3, S. aureus ATCC 13301, Exp. #1",≦0.125 μg/ml
same,MIC,"S. aureus; Table 3, S. aureus ATCC 13301, Exp. #2",≦0.125 μg/ml
same,MIC,"S. aureus; Table 3, S. aureus ATCC 14154, Exp. #1",≦0.125 μg/ml
same,MIC,"S. aureus; Table 3, S. aureus ATCC 14154, Exp. #2",≦0.125 μg/ml
same,MIC,"S. aureus; Table 3, S. aureus ATCC 33591, Exp. #1",≦0.125 μg/ml
same,MIC,"S. aureus; Table 3, S. aureus ATCC 33591, Exp. #2",≦0.125 μg/ml
same,MIC,"S. aureus; Table 3, S. aureus ATCC 33592, Exp. #1",≦0.125 μg/ml
same,MIC,"S. aureus; Table 3, S. aureus ATCC 33592, Exp. #2",≦0.125 μg/ml
same,MIC,"S. aureus; Table 3, S. aureus ATCC 33593, Exp. #1",≦0.125 μg/ml
same,MIC,"S. aureus; Table 3, S. aureus ATCC 33593, Exp. #2",≦0.125 μg/ml
same,MIC,"S. aureus; Table 3, S. aureus ATCC 43300, Exp. #1",≦0.125 μg/ml
same,MIC,"S. aureus; Table 3, S. aureus ATCC 43300, Exp. #2",≦0.125 μg/ml
same,MIC,"S. aureus; Table 3, S. aureus ATCC 700260, Exp. #1",≦0.125 μg/ml
same,MIC,"S. aureus; Table 3, S. aureus ATCC 700260, Exp. #2",≦0.125 μg/ml
same,MIC,"S. aureus; Table 3, S. aureus ATCC 700698, Exp. #1",≦0.125 μg/ml
same,MIC,"S. aureus; Table 3, S. aureus ATCC 700698, Exp. #2",≦0.125 μg/ml
same,MIC,"S. aureus; Table 3, S. aureus ATCC 700699, Exp. #1",16000 ng/mL
same,MIC,"S. aureus; Table 3, S. aureus ATCC 700699, Exp. #2",8000 ng/mL
same,MIC,"S. aureus; Table 3, S. aureus ATCC 700787, Exp. #1",≦0.125 μg/ml
same,MIC,"S. aureus; Table 3, S. aureus ATCC 700787, Exp. #2",≦0.125 μg/ml
same,MIC,"S. aureus; Table 3, S. aureus ATCC 700788, Exp. #1",≦0.125 μg/ml
same,MIC,"S. aureus; Table 3, S. aureus ATCC 700788, Exp. #2",≦0.125 μg/ml
same,MIC,"S. aureus; Table 3, S. aureus ATCC 700789, Exp. #1",≦0.125 μg/ml
same,MIC,"S. aureus; Table 3, S. aureus ATCC 700789, Exp. #2",≦0.125 μg/ml
same,MIC,"S. aureus; Table 4, MRSA ATCC 700699, Exp. #1",32000 ng/mL
same,MIC,"S. aureus; Table 4, MRSA ATCC 700699, Exp. #2",32000 ng/mL
same,MIC,"S. aureus; Table 4, MSSA ATCC 11632, Exp. #1",32000 ng/mL
same,MIC,"S. aureus; Table 4, MSSA ATCC 11632, Exp. #2",16000 ng/mL
same,MIC,"S. aureus; Table 4, MSSA ATCC 33594, Exp. #1",≦0.125 μg/ml
same,MIC,"S. aureus; Table 4, MSSA ATCC 33594, Exp. #2",≦0.125 μg/ml
same,MIC,"S. aureus; Table 4, MSSA ATCC 700260, Exp. #1",≦0.125 μg/ml
same,MIC,"S. aureus; Table 4, MSSA ATCC 700260, Exp. #2",4000 ng/mL
same,MIC,"S. aureus; Table 5, MSSA ATCC 11632",0.977 ng/mL
same,MIC,"S. aureus; Table 5, MSSA ATCC 13301",0.015 ng/mL
same,MIC,"S. aureus; Table 5, MSSA ATCC 14154",0.977 ng/mL
same,MIC,"S. aureus; Table 5, MSSA ATCC 33591",15.63 ng/mL
same,MIC,"S. aureus; Table 5, MSSA ATCC 33592",0.488 ng/mL
same,MIC,"S. aureus; Table 5, MSSA ATCC 33593",0.488 ng/mL
same,MIC,"S. aureus; Table 5, MSSA ATCC 43300",0.977 ng/mL
same,MIC,"S. aureus; Table 5, MSSA ATCC 700260",0.031 ng/mL
same,MIC,"S. aureus; Table 5, MSSA ATCC 700698",3.906 ng/mL
same,MIC,"S. aureus; Table 5, MSSA ATCC 700699",≧4 μg/ml
same,MIC,"S. aureus; Table 5, MSSA ATCC 700787",7.813 ng/mL
same,MIC,"S. aureus; Table 5, MSSA ATCC 700788",62.5 ng/mL
same,MIC,"S. aureus; Table 5, MSSA ATCC 700789",15.63 ng/mL
same,MIC,"S. epidermidis; Table 3, S. epidermidis ATCC 27626, Exp. #1",≦0.125 μg/ml
same,MIC,"S. epidermidis; Table 3, S. epidermidis ATCC 27626, Exp. #2",≦0.125 μg/ml
same,MIC,"S. epidermidis; Table 3, S. epidermidis ATCC 700565, Exp. #1",2 µg/mL
same,MIC,"S. epidermidis; Table 3, S. epidermidis ATCC 700565, Exp. #2",2 µg/mL
same,MIC,"S. epidermidis; Table 3, S. epidermidis ATCC 700566, Exp. #1",≦0.125 μg/ml
same,MIC,"S. epidermidis; Table 3, S. epidermidis ATCC 700566, Exp. #2",≦0.125 μg/ml
same,MIC,"S. epidermidis; Table 3, S. epidermidis ATCC 700578, Exp. #1",0.5 µg/mL
same,MIC,"S. epidermidis; Table 3, S. epidermidis ATCC 700578, Exp. #2",0.25 µg/mL
same,MIC,"S. epidermidis; Table 3, S. epidermidis ATCC 700583, Exp. #1",≦0.125 μg/ml
same,MIC,"S. epidermidis; Table 3, S. epidermidis ATCC 700583, Exp. #2",≦0.125 μg/ml
same,MIC,E. coli; Exp. #1,16 µg/mL
same,MIC,E. coli; Exp. #2,16 µg/mL
same,MIC,"E. cloacae; Table 3, E. cloacae ATCC 23355, Exp. #1",0.5 µg/mL
same,MIC,"E. cloacae; Table 3, E. cloacae ATCC 23355, Exp. #2",0.5 µg/mL
same,MIC,"E. cloacae; Table 4, E. cloacae ATCC 23355, Exp. #1",16 µg/mL
same,MIC,"E. cloacae; Table 4, E. cloacae ATCC 23355, Exp. #2",1 µg/mL
same,MIC,"E. faecalis; Table 4, E. faecalis ATCC 49757, Exp. #1",64 µg/mL
same,MIC,"E. faecalis; Table 4, E. faecalis ATCC 49757, Exp. #2",32 µg/mL
same,MIC,"E. faecalis; Table 4, E. faecalis ATCC 700802, Exp. #1",32 µg/mL
same,MIC,"E. faecalis; Table 4, E. faecalis ATCC 700802, Exp. #2",32 µg/mL
same,MIC,"H. influenzae; Table 4, H. influenzae ATCC 33533, Exp. #1",64 µg/mL
same,MIC,"H. influenzae; Table 4, H. influenzae ATCC 33533, Exp. #2",≧64 μg/ml
same,MIC,"E. aerogenes; Table 3, E. aerogenes ATCC 13048, Exp. #1",1 µg/mL
same,MIC,"E. aerogenes; Table 3, E. aerogenes ATCC 13048, Exp. #2",1 µg/mL
same,MIC,"E. aerogenes; Table 3, E. aerogenes ATCC 29009, Exp. #1",0.25 µg/mL
same,MIC,"E. aerogenes; Table 3, E. aerogenes ATCC 29009, Exp. #2",≦0.125 μg/ml
same,MIC,"E. aerogenes; Table 3, E. aerogenes ATCC 29751, Exp. #1",2 µg/mL
same,MIC,"E. aerogenes; Table 3, E. aerogenes ATCC 29751, Exp. #2",1 µg/mL
same,MIC,"E. aerogenes; Table 3, E. aerogenes ATCC 35028, Exp. #1",4 µg/mL
same,MIC,"E. aerogenes; Table 3, E. aerogenes ATCC 35028, Exp. #2",2 µg/mL
same,MIC,"E. aerogenes; Table 4, E. aerogenes ATCC 35028, Exp. #1",32 µg/mL
same,MIC,"E. aerogenes; Table 4, E. aerogenes ATCC 35028, Exp. #2",16 µg/mL
same,MIC,"K. pneumoniae; Table 3, K. pneumoniae ATCC 51503, Exp. #1",8 µg/mL
same,MIC,"K. pneumoniae; Table 3, K. pneumoniae ATCC 51503, Exp. #2",8 µg/mL
same,MIC,"K. pneumoniae; Table 3, K. pneumoniae ATCC 51504, Exp. #1",1 µg/mL
same,MIC,"K. pneumoniae; Table 3, K. pneumoniae ATCC 51504, Exp. #2",2 µg/mL
same,MIC,"K. pneumoniae; Table 3, K. pneumoniae ATCC 700721, Exp. #1",2 µg/mL
same,MIC,"K. pneumoniae; Table 3, K. pneumoniae ATCC 700721, Exp. #2",2 µg/mL
same,MIC,"K. pneumoniae; Table 4, K. pneumoniae ATCC 51503, Exp. #1",4 µg/mL
same,MIC,"K. pneumoniae; Table 4, K. pneumoniae ATCC 51503, Exp. #2",8 µg/mL
same,MIC,"K. pneumoniae; Table 4, K. pneumoniae ATCC 700721, Exp. #1",4 µg/mL
same,MIC,"K. pneumoniae; Table 4, K. pneumoniae ATCC 700721, Exp. #2",8 µg/mL
same,MIC,"M. catarrhalis; Table 3, M. catarrhalis ATCC 43627, Exp. #1",≦0.125 μg/ml
same,MIC,"M. catarrhalis; Table 3, M. catarrhalis ATCC 43627, Exp. #2",≦0.125 μg/ml
same,MIC,"M. catarrhalis; Table 3, M. catarrhalis ATCC 43628, Exp. #1",≦0.125 μg/ml
same,MIC,"M. catarrhalis; Table 3, M. catarrhalis ATCC 43628, Exp. #2",≦0.125 μg/ml
same,MIC,"M. catarrhalis; Table 3, M. catarrhalis ATCC 49265, Exp. #1",≦0.125 μg/ml
same,MIC,"M. catarrhalis; Table 3, M. catarrhalis ATCC 49265, Exp. #2",≦0.125 μg/ml
same,MIC,"M. catarrhalis; Table 3, M. catarrhalis ATCC 51584, Exp. #1",≦0.125 μg/ml
same,MIC,"M. catarrhalis; Table 3, M. catarrhalis ATCC 51584, Exp. #2",≦0.125 μg/ml
same,pIC50,Mammalian cells,~4.52
